Patent US11850305B2 (GLAXOSMITHKLINE BIOLOGICALS SA, priority 2010, dated 2023)
Read-outs that look alike come from different tables or passages of the source.

Assays:
[1] = pKa measurement of lipid with TNS fluorescent probe; type: physicochemical
Text: This is done with all eight buffers.

BHK cells = assay: BHK expression; type: cell-based; conditions: liposomes incubated with BHK cells overnight
Experimental: Liposomes with different lipids were incubated with BHK cells overnight and assessed for protein expression potency. From a baseline with RV05 lipid expression could be increased 18× by adding 10% 1,2-diphytanoyl-sn-glycero-3-phosphoethanolamine (DPyPE) to the liposome, 10× by adding 10% 18:2 (cis) phosphatidylcholine, and 900× by instead using RV01.

RSV F protein = assay: Total IgG titers against F protein after replicon delivery in liposomes with alternative cationic lipids; type: in vivo; conditions: cationic lipid of RV01 liposomes replaced; 2wp1 and 2wp2
Text: These liposomes were also used to deliver a replicon encoding full-length RSV F protein. Total IgG titers against F protein two weeks after the first dose (2wp1) are plotted against pKa in FIG. 16. The best results are seen where the pKa is where the cationic lipid has a pKa between 5.7-5.9, but pKa alone is not enough to guarantee a high titer e.g. the lipid must still support liposome formation.
The cationic lipid in RV01 liposomes (DLinDMA) was replaced by RV16, RV17, RV18 or RV19.

[2] = probe 6-(p-toluidino)-2-naphthalenesulfonic acid (TNS), lipid alone, TNS fluorescence method, read-out: pKa of cationic lipid

pKa [1, 2] | Structure (SMILES) | also measured
6.1 | CCCCC/C=C\C/C=C\CCCCCCCCNC(=O)C(CN(C)C)NC(=O)CCCCCCC/C=C\C/C=C\CCCCC (centres unmarked) | –
> 9 | CCCCCCCC/C=C\CCCCCCCC(=O)N[C@@H](CCNC(=N)N)C(=O)NCCCCCCCCCCCCCCCC [RV02] | –
– | CCCCC/C=C\C/C=C\CCCCCCCCOCC(CN1CCC(C)(C)C1)OCCOCCO[C@H]1CC[C@@]2(C)C(=CC[C@H]3[C@@H]4CC[C@H]([C@H](C)CCCC(C)C)[C@@]4(C)CC[C@@H]32)C1 (some centres unmarked) [RV05] | pKa [1]: ~5.8
– | CCCCC/C=C\C/C=C\CCCCCCCCOCC(CN1CCCC1C)OCCOCCOCCNC(=O)O[C@H]1CC[C@@]2(C)C(=CC[C@H]3[C@@H]4CC[C@H]([C@H](C)CCCC(C)C)[C@@]4(C)CC[C@@H]32)C1 (some centres unmarked) [RV12] | pKa [1]: 7
6.1 | CCCCCCCC/C=C\CCCCCCCCNC(=O)C(CN(C)C)NC(=O)CCCCCCC/C=C\CCCCCCCC (centres unmarked) [RV17] | –
– | CCCCCCCC/C=C\CCCCCCCCOCC(C[N+](C)(C)C)OCCCCCCCC/C=C\CCCCCCCC.[Cl-] (centres unmarked) [RV19] | Total IgG titers (FIG. 17) (RSV F protein): lowest results

Structure (SMILES) | pKa [1, 2] | also measured
CCCCC/C=C\C/C=C\CCCCCCCCOCC(CN(C)C)OCCCCCCCC/C=C\C/C=C\CCCCC (centres unmarked) [RV01, 1,2-dilinoleyloxy-N,N-dimethyl-3-aminopropane, reference compound] | ~5.8 | increase of protein expression from a baseline with RV05 lipid (BHK cells): 900 ×
